In patent publication US10363257B2 (ZENITH EPIGENETICS LTD., priority 2013, dated 2019) one finds ApoA-1 activity and IC50 data, which are given here for 1 compound.

Each structure is given as a SMILES string.

One test deals with hApoA-1 mRNA. Put plainly: Up-regulation of hApoA-1 mRNA transcription in Huh7 cells. Type of test: cell-based, human. The conditions noted are these: EC170, Huh7 cells, 48 h treatment, ApoA-I mRNA. As for the experimental part:
In this example, ApoA-I mRNA in tissue culture cells was quantitated to measure the transcriptional up-regulation of ApoA-I when treated with a compound of the invention.
Huh7 cells (2.5×10^5 per well) were plated in a 96-well plate using 100 μL DMEM per well, (Gibco DMEM supplemented with penicillin/streptomycin and 10% FBS), 24 h before the addition of the compound of interest. After 48 h treatment, the spent media was removed from the Huh-7 cells and placed on ice (for immediate use) or at −80° C. (for future use) with the “LDH cytotoxicity assay Kit II” from Abcam. The cells remaining in the plate were rinsed with 100 μL PBS.
Then 85 μL of cell lysis solution was added to each well and incubated for 5-10 min at room temperature, to allow for complete cell lysis and detachment. mRNA was then prepared using the “mRNA Catcher PLUS plate” from Life Technologies, according to the protocol supplied. After the last wash, as much wash buffer as possible was aspirated without allowing the wells to dry. […]
The eluted mRNA isolated was then used in a one-step real-time PCR reaction, using components of the Ultra Sense Kit together with Life Technologies primer-probe mixes. Real-time PCR data was analyzed, using the Ct values, to determine the fold induction of each unknown sample, relative to the control (that is, relative to the control for each independent DMSO concentration).

Another test has as its system hIL-6 mRNA. The test can be described thus: Inhibition of hIL-6 mRNA transcription in LPS-stimulated U937 cells. Type of test: cell-based. Conditions: Homo sapiens, U-937; PMA-differentiated U937 cells, 1 h pretreatment, 1 ug/mL LPS stimulation, 3 h; read-out: IL-6 activity (Inhibition of hIL-6 mRNA Transcription). An outline of the steps: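 U937 cells differentiated 3 days with 60 ng/mL PMA, pretreated 1 h with compound (0.1% DMSO), then stimulated with 1 ug/mL E. coli LPS for 3 h at 37 °C. hIL-6 mRNA measured by one-step TaqMan RT-qPCR, normalized to cyclophilin. Fold expression relative to control; triplicate wells.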

The next test deals with c-myc. The test can be described thus: Inhibition of c-myc expression (mRNA, real-time PCR) in MV4-11 cells. The conditions noted are these: Human AML MV4-11 cells, 3 h, cMYC mRNA. The class given is cell-based. An outline of the steps: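 MV4-11 cells treated 3 h at 37° C with increasing compound concentrations or 0.1% DMSO, in triplicate. cMYC mRNA quantified by one-step TaqMan real-time PCR, Ct normalized to internal control (Cyclophilin primers used), fold expression relative to control.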
On the technique in general: Quantitative PCR measures a nucleic acid by following its amplification.

With `Cc1noc(C)c1-c1cc(N)c2ncn(Cc3ccccc3)c2c1` [Example Compound 7, 1-Benzyl-6-(3,5-dimethylisoxazol-4-yl)-1H-benzo[d]imidazol-4-amine], the ApoA-1 activity result in the test on hApoA-1 mRNA is “+++ (EC170 value less than or equal to 0.3 μM were deemed to be highly active (+++))”. Further, the figures for the IC50 with hIL-6 mRNA and with c-myc were at most 0.3 µM and 0.3 to 3 µM, respectively.
